Numbers after ± are expanded uncertainties.
Assays:
[1] = refractive index (Na D-line) (dimensionless); conditions: 293.15 K; 101.33 kPa; Liquid; Standard Abbe refractometry
[2] = Liquid; for mass density: 293.15 K, 101.33 kPa; for Normal boiling temperature: Distillation

refractive index [1] | mass density [2] [kg/m3] | Normal boiling temperature [2] [°C] | SMILES
1.3808 ± 0.0007 | 988.04 ± 0.41 | 141.4 ± 0.2 | CCC(=O)O [propanoic acid]
1.42014 ± 0.0007 | 1040.22 ± 0.5 | 217.7 ± 0.2 | CCOC(=O)CCC(=O)OCC [diethyl butanedioate]
1.42725 ± 0.0007 | 1007.63 ± 0.41 | 245.2 ± 0.2 | CCOC(=O)CCCCC(=O)OCC [diethyl hexanedioate]
1.42414 ± 0.00078 | 1022.04 ± 1.2 | 236.5 ± 0.2 | CCOC(=O)CCCC(=O)OCC [diethyl glutarate]

From the NIST ThermoML archive (doi:10.1016/j.jct.2007.03.004)
